Test results published in the CheMixHub viscosity set.
± gives the uncertainty stated by the source.

Experiment: xn = mol fraction of the nth substance listed

OCCOCCOCCO + O
Conditions	viscosity [mPa·s]
293.15 K, 100 kPa, x2 = 0.05	46.03 ± 0.86
293.15 K, 100 kPa, x2 = 0.094	44.8 ± 0.82
298.15 K, 100 kPa, x2 = 0.014	37.14 ± 0.62
298.15 K, 100 kPa, x2 = 0.094	34.66 ± 0.57
298.15 K, 101.33 kPa, x1 = 0.0824	3.65 ± 0.1
298.15 K, 101.33 kPa, x1 = 0.1678	8.7 ± 0.23
298.15 K, 101.33 kPa, x1 = 0.35	19.77 ± 0.52
303.15 K, 100 kPa, x2 = 0.05	28.19 ± 0.44
303.15 K, 100 kPa, x2 = 0.094	27.25 ± 0.4
303.15 K, 100 kPa, x2 = 0.112	27.95 ± 0.96
303.15 K, 101 kPa, x1 = 0.05023	2.114 ± 0.081
303.15 K, 101 kPa, x1 = 0.1004	4.102 ± 0.084
303.15 K, 101 kPa, x1 = 0.1518	6.604 ± 0.089
303.15 K, 101 kPa, x1 = 0.2006	9.27 ± 0.095
303.15 K, 101 kPa, x1 = 0.2528	11.91 ± 0.11
303.15 K, 101 kPa, x1 = 0.2995	14.77 ± 0.11
303.15 K, 101 kPa, x1 = 0.3928	18.53 ± 0.13
303.15 K, 101 kPa, x1 = 0.5013	21.84 ± 0.15
303.15 K, 101 kPa, x1 = 0.5995	24.34 ± 0.17
303.15 K, 101 kPa, x1 = 0.6648	25.69 ± 0.18
303.15 K, 101 kPa, x1 = 0.7981	27.13 ± 0.2
303.15 K, 101 kPa, x1 = 0.8445	27.86 ± 0.21
303.15 K, 101 kPa, x1 = 0.8998	28.37 ± 0.22
303.15 K, 101 kPa, x1 = 0.954	28.74 ± 0.22
303.15 K, 101.33 kPa, x1 = 0.0004	0.781 ± 0.011
303.15 K, 101.33 kPa, x1 = 0.0008	0.788 ± 0.011
303.15 K, 101.33 kPa, x1 = 0.0014	0.798 ± 0.011
303.15 K, 101.33 kPa, x1 = 0.0024	0.82 ± 0.011
303.15 K, 101.33 kPa, x1 = 0.0056	0.875 ± 0.012
303.15 K, 101.33 kPa, x1 = 0.011	0.986 ± 0.013
303.15 K, 101.33 kPa, x1 = 0.0317	1.48 ± 0.019
303.15 K, 101.33 kPa, x1 = 0.0563	2.254 ± 0.028
303.15 K, 101.33 kPa, x1 = 0.0988	4.058 ± 0.049
303.15 K, 101.33 kPa, x1 = 0.1954	8.931 ± 0.096
303.15 K, 101.33 kPa, x1 = 0.2932	14.1 ± 0.14
303.15 K, 101.33 kPa, x1 = 0.3871	18.23 ± 0.18
303.15 K, 101.33 kPa, x1 = 0.5032	22.21 ± 0.22
303.15 K, 101.33 kPa, x1 = 0.5991	24.2 ± 0.24
303.15 K, 101.33 kPa, x1 = 0.6914	26.06 ± 0.25
303.15 K, 101.33 kPa, x1 = 0.7941	27.17 ± 0.26
308.15 K, 100 kPa, x2 = 0.05	22.55 ± 0.32
308.15 K, 100 kPa, x2 = 0.094	21.88 ± 0.29
308.15 K, 100 kPa, x2 = 0.112	22.44 ± 0.69
308.15 K, 101 kPa, x1 = 0.05023	1.848 ± 0.081
308.15 K, 101 kPa, x1 = 0.1004	3.491 ± 0.083
308.15 K, 101 kPa, x1 = 0.1518	5.543 ± 0.087
308.15 K, 101 kPa, x1 = 0.2006	7.668 ± 0.092
308.15 K, 101 kPa, x1 = 0.2528	9.722 ± 0.099
308.15 K, 101 kPa, x1 = 0.2995	11.99 ± 0.11
308.15 K, 101 kPa, x1 = 0.3928	14.94 ± 0.12
308.15 K, 101 kPa, x1 = 0.5013	17.51 ± 0.14
308.15 K, 101 kPa, x1 = 0.5995	19.48 ± 0.15
308.15 K, 101 kPa, x1 = 0.6648	20.58 ± 0.16
308.15 K, 101 kPa, x1 = 0.7981	21.8 ± 0.17
308.15 K, 101 kPa, x1 = 0.8445	22.32 ± 0.18
308.15 K, 101 kPa, x1 = 0.8998	22.65 ± 0.19
308.15 K, 101.33 kPa, x1 = 0.0004	0.707 ± 0.01
308.15 K, 101.33 kPa, x1 = 0.0008	0.714 ± 0.01
308.15 K, 101.33 kPa, x1 = 0.0014	0.725 ± 0.01
308.15 K, 101.33 kPa, x1 = 0.0024	0.736 ± 0.01
308.15 K, 101.33 kPa, x1 = 0.0056	0.787 ± 0.011
308.15 K, 101.33 kPa, x1 = 0.011	0.877 ± 0.012
308.15 K, 101.33 kPa, x1 = 0.0317	1.298 ± 0.017
308.15 K, 101.33 kPa, x1 = 0.0563	1.934 ± 0.025
308.15 K, 101.33 kPa, x1 = 0.0988	3.33 ± 0.041
308.15 K, 101.33 kPa, x1 = 0.1954	7.273 ± 0.081
308.15 K, 101.33 kPa, x1 = 0.2932	11.27 ± 0.12
308.15 K, 101.33 kPa, x1 = 0.3871	14.47 ± 0.15
313.15 K, 100 kPa, x2 = 0.014	19.23 ± 0.23
313.15 K, 100 kPa, x2 = 0.05	18.39 ± 0.23
313.15 K, 100 kPa, x2 = 0.094	17.83 ± 0.21
313.15 K, 101 kPa, x1 = 0.05023	1.618 ± 0.081
313.15 K, 101 kPa, x1 = 0.1004	3.012 ± 0.082
313.15 K, 101 kPa, x1 = 0.1518	4.689 ± 0.085
313.15 K, 101 kPa, x1 = 0.2006	6.418 ± 0.089
313.15 K, 101 kPa, x1 = 0.2528	8.113 ± 0.093
313.15 K, 101 kPa, x1 = 0.2995	9.888 ± 0.1
313.15 K, 101 kPa, x1 = 0.3928	12.22 ± 0.11
313.15 K, 101 kPa, x1 = 0.5013	14.27 ± 0.12
313.15 K, 101 kPa, x1 = 0.5995	15.84 ± 0.13
313.15 K, 101 kPa, x1 = 0.6648	16.75 ± 0.14
313.15 K, 101 kPa, x1 = 0.7981	17.67 ± 0.15
313.15 K, 101 kPa, x1 = 0.8445	18.12 ± 0.15
313.15 K, 101 kPa, x1 = 0.8998	18.44 ± 0.16
313.15 K, 101 kPa, x1 = 0.954	18.69 ± 0.16
318.15 K, 100 kPa, x2 = 0.014	15.91 ± 0.17
318.15 K, 100 kPa, x2 = 0.05	15.2 ± 0.18
318.15 K, 100 kPa, x2 = 0.094	14.73 ± 0.16
318.15 K, 100 kPa, x2 = 0.112	15.13 ± 0.42
318.15 K, 101 kPa, x1 = 0.05023	1.455 ± 0.08
318.15 K, 101 kPa, x1 = 0.1004	2.621 ± 0.081
318.15 K, 101 kPa, x1 = 0.1518	4.011 ± 0.084
318.15 K, 101 kPa, x1 = 0.2006	5.421 ± 0.086
318.15 K, 101 kPa, x1 = 0.2528	6.753 ± 0.09
318.15 K, 101 kPa, x1 = 0.2995	8.235 ± 0.094
318.15 K, 101 kPa, x1 = 0.3928	10.07 ± 0.1
318.15 K, 101 kPa, x1 = 0.5013	11.79 ± 0.11
318.15 K, 101 kPa, x1 = 0.5995	13.02 ± 0.12
318.15 K, 101 kPa, x1 = 0.6648	13.73 ± 0.12
318.15 K, 101 kPa, x1 = 0.7981	14.53 ± 0.13
318.15 K, 101 kPa, x1 = 0.8445	14.92 ± 0.13
318.15 K, 101 kPa, x1 = 0.8998	15.2 ± 0.14
318.15 K, 101 kPa, x1 = 0.954	15.4 ± 0.14
323.15 K, 100 kPa, x2 = 0.014	13.33 ± 0.14
323.15 K, 100 kPa, x2 = 0.05	12.7 ± 0.15
323.15 K, 100 kPa, x2 = 0.094	12.32 ± 0.13
323.15 K, 100 kPa, x2 = 0.112	12.64 ± 0.34
323.15 K, 101 kPa, x1 = 0.05023	1.295 ± 0.08
323.15 K, 101 kPa, x1 = 0.1004	2.296 ± 0.081
323.15 K, 101 kPa, x1 = 0.1518	3.473 ± 0.083
323.15 K, 101 kPa, x1 = 0.2006	4.63 ± 0.085
323.15 K, 101 kPa, x1 = 0.2528	5.724 ± 0.087
323.15 K, 101 kPa, x1 = 0.2995	6.927 ± 0.092
323.15 K, 101 kPa, x1 = 0.3928	8.441 ± 0.097
323.15 K, 101 kPa, x1 = 0.5013	9.827 ± 0.1
323.15 K, 101 kPa, x1 = 0.5995	10.84 ± 0.11
323.15 K, 101 kPa, x1 = 0.6648	11.45 ± 0.11
323.15 K, 101 kPa, x1 = 0.7981	12.09 ± 0.12
323.15 K, 101 kPa, x1 = 0.8445	12.41 ± 0.12
323.15 K, 101 kPa, x1 = 0.8998	12.64 ± 0.12
323.15 K, 101 kPa, x1 = 0.954	12.8 ± 0.12
